Results: the NIST ThermoML archive (doi:10.1016/j.tca.2008.10.020)
± gives the expanded uncertainty stated by the source.

Tests used:
[1] = Molar enthalpy of transition or fusion; details: Crystal 2; DSC
[2] = Crystal 2; DTA

Compound: [Cl][Pt][Cl] [platinous chloride]
- Molar enthalpy of transition or fusion [1]: 0.0399 ± 0.0227 kcal/mol
- Triple point temperature [2]: 660 ± 10 K
